In patent publication US20210059983A1, “METHODS AND MATERIALS FOR IDENTIFYING AND TREATING CANCER” (Mayo Foundation for Medical Education and Research, priority 2018, published 2021):
“Also recorded” adds a separate entry of the source.

What was measured:
[1] = biological target: recombinant TET-2 protein (Homo sapiens, UniProt Q6N021); test: Fluorescence quenching of recombinant TET-2 protein (Stern-Volmer); format: binding
Protocol: The step width was 1 nm, and the integration time was 1 second.
All protein solutions contained 0.5 μM TET2 in PBS buffer.
In this equation, KD was the quenching constant, and [Q] was a defined concentration of ascorbic acid. F^0 and F were the fluorescence intensities (at 328 nm) in absence and presence of ascorbic acid, respectively.

[2] = tested on: RCC cells (786O) xenografted; test: In vivo xenograft study with AA; parameters: species or system immunodeficient NSG mice; conditions: IV AA 1 g/kg per day, 5 days/week, 5 weeks, vs vehicle; n=10 per cohort
Protocol: RCC cells (786O) were xenografted into immunodeficient NSG mice. After tumors were established, treatment was initiated with tail vein injections: IV AA at 1 g/kg/d or vehicle over 5 weeks (5 days dosing/week), and tumor measurements were conducted.

[3] = tested on: ccRCC cells (786 and 769); test: Genome wide DNA methylation analysis using the HELP assay; format: cell-based, human
Protocol: The HELP assay was carried out as described elsewhere ([…] et al., Nucleic Acids Res., 41(16):e157 (2013)). Intact DNA of high molecular weight was corroborated by electrophoresis on 1% agarose gel in all cases. One microgram of genomic DNA was digested overnight with either HpaII or MspI (NEB, Ipswich, Mass.). The following day, the reactions were extracted once with phenol-chloroform and resuspended in 11 μL of 10 mM Tris-HCl pH 8.0. The digested DNA was used to set up an overnight ligation of the JHpaII adapter using T4 DNA ligase. The adapter-ligated DNA was used to carry out the PCR amplification of the HpaII and MspI-digested DNA as described elsewhere ([…] et al., Nucleic Acids Res., 41(16):e157 (2013)). Both amplified fractions were submitted for labeling and hybridization onto a human hg18 custom-designed oligonucleotide array (50-mers) covering 1.3 million HpaII amplifiable fragments (HAF). All microarray hybridizations were subjected to extensive quality control. Uniformity of hybridization was evaluated using a modified version of an algorithm adapted for the NimbleGen platform, and any hybridization with strong regional artifacts was discarded. Bioinformatic analysis was done as described elsewhere (Bhattacharyya et al., Nucleic Acids Res., 41(16):[…] (2013); Suzuki et al., Genome Biol., 11(4):[…] (2010)).

[4] = tested on: RCC (786O) cells; test: Cell viability (Cell Titer Blue); format: cell-based
Protocol: Cells were incubated at varying concentrations and at various time periods with L-ascorbic acid (Sigma-Aldrich, Cat #50-81-7) with or without catalase at 100 μg/mL (Sigma-Aldrich, Cat #9001-05-2). Viability was assessed by addition of Cell Titer Blue (Promega, Madison, Wis., USA) and measured via Fluostar Omega Microplate reader (BMG Labtech, Offenburg, Germany). […] A protocol modification to counter this interference was done as described elsewhere (Shenoy et al., Laboratory Investigation, 97:494-497 (2017)) and used in this study.

[5] = tested on: 786-O cells; test: Flow cytometry for cell cycle analysis (PI); format: cell-based; conditions: high dose AA + catalase, 96 hours
Protocol: (§1) 786-O cells were treated with high dose ascorbic acid (+catalase), and apoptosis and cell cycle dynamics were studied at the 96 hour time point. Cells were washed with Annexin buffer solution and stained with both propidium iodide (PI) and FITC-Annexin V (Life Technologies), and assayed on a BD FACS Calibur flow cytometer (BD Biosciences). Apoptosis results were analyzed with BD CellQuest software. For cell cycle analysis, cells were fixed with 70% cold ethanol and subsequently analyzed after PI staining. Analysis was performed using FlowJo software.

[6] = tested on: 786-O cells; test: Flow cytometry for apoptosis (Annexin V/PI); format: cell-based; conditions: AA 1 mM + catalase, assay at 96 hour time point
Protocol: as §1

[7] = tested on: RCC cells 769P; test: Measurement of 5hmC levels by LC-ESI-MS/MS; format: cell-based; conditions: 769P cells after AA treatment
[8] = tested on: TET enzymatic activity in RCC cells (769P and 7860); test: In-vitro TET enzymatic activity of nuclear extracts from AA treated RCC cells (ELISA-based Epigenase 5mC Hydroxylase TET Activity kit); conditions: pH neutralized AA, ccRCC cell lines 769P and 7860, short exposure then 24 hour incubation in fresh media
Protocol: Cells were treated with different concentrations of pH neutralized AA, with or without catalase. Exposure time to 1 mM AA was 2 hours (taking into account the plasma concentration curve with intravenous (i.v.) AA and potential differences between plasma concentrations with that of tumor microenvironment) followed by the cells being washed and incubated in fresh media for 24 hours. Nuclear protein was then isolated from cells using the EpiQuik nuclear extraction kit (Epigentek Group Inc, Farmingdale, N.Y., USA), according to the manufacturer's instructions. TET enzymatic activity was measured by using the Enzyme Linked ImmunoSorbent Assay (ELISA)-based Epigenase 5mC Hydroxylase TET Activity/Inhibition Assay Kit (Fluorometric) according to the manufacturer's instructions. This technique relied on the conversion of methylated products at the bottom of the wells to hydroxymethylated products by the TET enzyme present in the nuclear extract. Thus, the amount of hydroxymethylated products formed was a measure of the TET activity of the nuclear extract harvested from the cells being tested. Incubation time of nuclear lysates was 90 minutes. Six micrograms of nuclear lysate was used per well for measurement of TET activity.

[9] = 0.5 μM TET-2 alone in PBS, 20° C.

| quenching efficiency (Stern-Volmer constant +/−SD) [1, 9] | quenching efficiency (Stern-Volmer constant +/−SD) ([1]; 0.5 μM TET-2 in presence of 23 μM 2OG) | quenching efficiency (Stern-Volmer constant +/−SD) ([1]; 0.5 μM TET-2 in presence of 2OG and L2HG (23 μM each per FIG. 5D legend)) | quenching efficiency (Stern-Volmer constant +/−SD) ([1]; 0.5 μM TET-2 in presence of L2HG (100 μM per FIG. 5D legend)) | reduction of the fluorescence emission signal ([1]; 132 μM AA, 0.5 μM TET-2, emission at 328 nm, excitation 280 nm, maximal quenching) | Structure (SMILES) | tumor growth [2] | Smad6 promoter methylation ([3]; 786 and 769 ccRCC cells after AA treatment) | global cytosine methylation (HELP assay) ([3]; AA treated vs control ccRCC cells) | viability, acute (short term exposure) ([4]; high dose AA (millimolar), 24 hours, without catalase) | viability at longer time points ([4]; high dose AA with catalase, longer-term exposure) | acute loss in viability with catalase co-treatment ([4]; high dose AA, 24 hours, with catalase 100 μg/mL) | cell cycle (G0/G1 arrest) [5] | apoptosis [6] | 5hmC (%5hmC) by LC-ESI-MS/MS [7] | TET enzymatic activity [8] |
| --- | --- | --- | --- | --- | --- | --- | --- | --- | --- | --- | --- | --- | --- | --- | --- |
| 15.66 ± 0.12 M⁻¹ |  |  |  |  | O=C(O)CCC(=O)C(=O)O [2OG] |  |  |  |  |  |  |  |  |  |  |
| 21.46 ± 0.70 M⁻¹ | 18.37 ± 0.80 M⁻¹ | 17.34 ± 0.87 M⁻¹ | 22.17 ± 0.68 M⁻¹ | 90% | O=C1O[C@H]([C@@H](O)CO)C(O)=C1O [AA, L-ascorbic acid] | significantly reduced rate of ccRCC growth; also recorded: significantly delayed tumor growth | demethylated | increased hypomethylation; also recorded: loss of methylation | Acute loss in viability | reduced viability; also recorded: dose dependent and progressive loss of viability | reversed by catalase treatment | significantly arrested in G0/G1 stage; also recorded: significant increase in G0/G1 arrest | increased apoptosis; also recorded: significant increase in apoptosis | significantly increased; also recorded: increase in 5hmC | increased after treatment; also recorded: increase in TET enzymatic activity |
